Assay results published in patent US20120190620A1, “METHODS TO IDENTIFY TARGETS AND MOLECULES REGULATING PURINOSOMES AND THEIR USES” (priority 2010, published 2012).

Columns and labels:
Type in all cases: cell-based, human
[1] = system: HeLa cells; assay: Purinosome dynamics DMR screen, sequential order molecule, TBB, DMAT
Text: A library of agonists for various different GPCRs were used to individually pretreat a confluent layer of Hela cells for about one hour, before sequential stimulation with TBB and DMAT, respectively. The responses were monitored using Epic® system.
(§1) (A) The dose-dependent DMR signals of Hela cells induced by alpha2A agonist clonidine. (B) The TBB DMR signal of Hela cells after pretreated with clonidine at different doses. (C) The dose-dependent DMR signals of pertussis toxin (PTX)-pretreated Hela cells induced by alpha2A agonist clonidine. (D) The TBB DMR signal of the PTX-pretreated Hela cells after stimulated with clonidine at different doses. The TBB concentration was 20 μM in both (C) and (D). The clonidine pretreatment occurred about one-hour before the TBB stimulation.
(§2) Epic® wavelength interrogation system (Corning Inc., Corning, N.Y.) was used for whole cell sensing. This system consists of a temperature-control unit, an optical detection unit, and an on-board liquid handling unit with robotics. The detection unit is centered on integrated fiber optics, and enables kinetic measures of cellular responses with a time interval of ˜15 sec. The compound solutions were introduced by using the on-board liquid handling unit (i.e., pippetting).
(§3) For biosensor cellular assays, compound solutions were made by diluting the stored concentrated solutions with the HBSS (1× Hanks balanced salt solution, plus 20 mM Hepes, pH 7.1), and transferred into a 384 well polypropylene compound storage plate to prepare a compound source plate. Two compound source plates were made separately when a two-step assay was performed. In parallel, the cells were washed twice with the HBSS and maintained in 30 μl of the HBSS to prepare a cell assay plate. Both the cell assay plate and the compound source plate(s) were then incubated in the hotel of the reader system. After incubation the baseline wavelengths of all biosensors in the cell assay microplate were recorded and normalized to zero. Afterwards, a 2 to 10 min continuous recording was carried out to establish a baseline, and to ensure that the cells reached a steady state. Cellular responses were then triggered by transferring 10 μl of the compound solutions into the cell assay plate using the on-board liquid handler.
(§4) All studies were carried out at a controlled temperature (28° C.). At least two independent sets of experiments, each with at least three replicates, were performed.
(§5) The upstream signaling pathways linking to the purinosome is unknown at the present time. To identify cellular targets and pathways that are involved in regulating purinosome dynamics, a library of agonists for a great number of G protein-coupled receptors and membrane bound receptor tyrosine kinases was made in house, and each agonist was used to stimulate a confluent layer of Hela cells, cultured using high initial seeding number (25k per well for 384 well Epic® cell culture compatible biosensor microplates) in purine rich medium (i.e., regular 10% FCS or FBS). The concentrations for all small organic molecules were 10 micromolar, whereas 1 micromolar for all small peptides, and 100 nanomolar for all protein factors (molecular weight >15k Da). The cellular responses to each agonist were recorded for about 1 hour, and used to determine the functional expression of their corresponding cognate receptor(s).

[2] = system: HeLa cells; assay: Purinosome dynamics DMR screen, sequential order molecule, DMAT, TBB
Text: A library of agonists for various different GPCRs were used to individually pretreat a confluent layer of Hela cells for about one hour, before sequential stimulation with DMAT and TBB, respectively. The responses were monitored using Epic® system.
A library of molecules targeting endogenous alpha2A and beta2 adrenergic receptors were used to individually pretreat a confluent layer of Hela cells for about one hour, before sequential stimulation with DMAT and TBB, respectively. The responses were monitored using Epic® system.
as §2, §3, §4, §5
To examine the receptor whose signaling is involved in regulating the purinosome dynamics, Hela cells were pretreated individually with each agonist for about one hour, followed by sequential stimulation with DMAT (20 micromolar) and TBB (25 micromolar), each step about 1 hour.

[3] = system: Gi protein in Hela cells; conditions: TBB 20 μM; clonidine at different doses; FIG. 9D
Protocol: as §1
Epic® wavelength interrogation system (Corning Inc., Corning, N.Y.) was used for whole cell sensing. This system consists of a temperature-control unit, an optical detection unit, and an on-board liquid handling unit with robotics. […]
For biosensor cellular assays, compound solutions were made by diluting the stored concentrated solutions with the HBSS (1× Hanks balanced salt solution, plus 20 mM Hepes, pH 7.1), and transferred into a 384 well polypropylene compound storage plate to prepare a compound source plate. […] Both the cell assay plate and the compound source plate(s) were then incubated in the hotel of the reader system. After incubation the baseline wavelengths of all biosensors in the cell assay microplate were recorded and normalized to zero. […]

[4] = system: HeLa cells; assay: Epic label-free biosensor DMR assay of compound-induced signals in HeLa cells; conditions: FIG. 9A
Text: HeLa cells were obtained from American Type Cell Culture (Manassas, Va.). This cervical cancer cell line was maintained in regular serum medium (i.e., minimum essential medium (MEM) (Invitrogen) supplemented with 10% fetal bovine serum (FBS) and 1% Penicillin/streptomycin). To investigate the effects of purine depletion on the purinosome formation and dissociation, HeLa cells were maintained for at least two passages in “purine-depleted medium” prior cell assays. The purine depleted medium is a medium consisting of Roswell Park Memorial Institute 1640 (RPMI 1640) supplemented with dialyzed 5% FBS […]. FBS was dialyzed against 0.9% NaCl at 4° C. for ˜2 days using a 25 kDa MWCO dialysis membrane to remove purines. This process completely removes the purines normally present in FBS.
Cells were typically grown using ˜1 to 2×10^4 cells per well at passage 3 to 15 suspended in 50 μl of the corresponding culture medium in the biosensor microplate, and were cultured at 37° C. under air/5% CO2 for ˜1 day. The confluency for all cells at the time of assays was ˜100%.
as §2
The RWG biosensor is capable of detecting minute changes in local index of refraction near the sensor surface. Since the local index of refraction within a cell is a function of density and its distribution of biomass (e.g., proteins, molecular complexes), the biosensor exploits its evanescent wave to non-invasively detect ligand-induced dynamic mass redistribution in native cells. The evanescent wave extends into the cells and exponentially decays over distance, leading to a characteristic sensing volume of ˜150 nm, implying that any optical response mediated through the receptor activation only represents an average over the portion of the cell that the evanescent wave is sampling. The aggregation of many cellular events downstream the receptor activation determines the kinetics and amplitudes of a ligand-induced DMR.
as §3, §4

[5] = GPCR/RTK agonist library, pretreated about one hour, order agonist, DMAT (20 micromolar), TBB (25 micromolar), FIG. 3
[6] = adrenergic receptor ligand library, order ligand, DMAT, TBB, FIG. 5

Structure (SMILES): Clc1cccc(Cl)c1N=C1NCCN1 [clonidine]
- modulation of the TBB DMR signal ([1]; agonist library, order agonist, TBB, DMAT, FIG. 4): selectively potentiate
- effect of clonidine pretreatment on the TBB response ([1]; clonidine at different doses about one-hour before TBB, FIG. 9B): dose-dependent potentiation
- modulation of the DMAT DMR signal [2, 5]: suppress
- modulation of the TBB DMR signal [2, 5]: potentiate
- modulation of the DMAT signal [2, 6]: suppress
- modulation of the TBB signal [2, 6]: potentiate
- change in the TBB signal of the PTX-treated Hela cells [3]: did not result in any significant change
- DMR signal triggered by agonist in Hela cells [4]: dose-dependent and saturable DMR signal
